Measured values: patent publication US20170233491A1 (Merrimack Pharmaceuticals, Inc., priority 2016, published 2017)
Counter-ions that a name gives are not always drawn.

Tests used:
[1] = tested on: HRG mRNA expression in CFPAC-1 cells; assay: HRG mRNA expression in CFPAC-1 cells after chemotherapy treatment; type: cell-based; details: FIG. 3
Protocol: HRG mRNA expression was quantified after 24 h treatment with 1 mM of gemcitabine or 0.1 mM of paclitaxel, and normalized to housekeeping gene expression. “Vehicle”=drug-free vehicle control; “Gem”=gemcitabine treated; “Pac”=paclitaxel treated.

[2] = biological target: receptor complexes containing IGF-1R and ErbB3 (Homo sapiens, UniProt P08069+P21860); details: including heterodimers with insulin receptor and with ErbB2; cited from earlier work
Chain of receptor complexes containing IGF-1R and ErbB3 (P08069 31-736 limits assumed): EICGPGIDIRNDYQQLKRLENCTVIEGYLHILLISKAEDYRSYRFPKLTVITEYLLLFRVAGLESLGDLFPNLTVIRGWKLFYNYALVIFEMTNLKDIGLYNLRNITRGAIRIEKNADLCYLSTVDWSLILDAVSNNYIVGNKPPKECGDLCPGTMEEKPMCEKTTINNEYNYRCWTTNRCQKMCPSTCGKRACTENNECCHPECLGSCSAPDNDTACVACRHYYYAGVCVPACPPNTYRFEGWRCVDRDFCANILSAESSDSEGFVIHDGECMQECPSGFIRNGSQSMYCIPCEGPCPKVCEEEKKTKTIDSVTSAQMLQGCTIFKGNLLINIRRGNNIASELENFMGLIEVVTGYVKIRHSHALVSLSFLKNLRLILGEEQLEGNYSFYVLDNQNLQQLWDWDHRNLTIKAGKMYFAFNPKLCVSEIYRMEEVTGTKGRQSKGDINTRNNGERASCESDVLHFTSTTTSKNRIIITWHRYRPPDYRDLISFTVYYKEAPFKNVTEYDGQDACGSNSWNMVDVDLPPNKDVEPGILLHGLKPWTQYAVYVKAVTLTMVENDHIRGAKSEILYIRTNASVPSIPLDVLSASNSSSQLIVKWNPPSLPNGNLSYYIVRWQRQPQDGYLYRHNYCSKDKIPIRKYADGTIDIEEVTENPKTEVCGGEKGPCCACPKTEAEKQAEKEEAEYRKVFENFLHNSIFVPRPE
Chain of receptor complexes containing IGF-1R and ErbB3 (P08069 741-1367 limits assumed): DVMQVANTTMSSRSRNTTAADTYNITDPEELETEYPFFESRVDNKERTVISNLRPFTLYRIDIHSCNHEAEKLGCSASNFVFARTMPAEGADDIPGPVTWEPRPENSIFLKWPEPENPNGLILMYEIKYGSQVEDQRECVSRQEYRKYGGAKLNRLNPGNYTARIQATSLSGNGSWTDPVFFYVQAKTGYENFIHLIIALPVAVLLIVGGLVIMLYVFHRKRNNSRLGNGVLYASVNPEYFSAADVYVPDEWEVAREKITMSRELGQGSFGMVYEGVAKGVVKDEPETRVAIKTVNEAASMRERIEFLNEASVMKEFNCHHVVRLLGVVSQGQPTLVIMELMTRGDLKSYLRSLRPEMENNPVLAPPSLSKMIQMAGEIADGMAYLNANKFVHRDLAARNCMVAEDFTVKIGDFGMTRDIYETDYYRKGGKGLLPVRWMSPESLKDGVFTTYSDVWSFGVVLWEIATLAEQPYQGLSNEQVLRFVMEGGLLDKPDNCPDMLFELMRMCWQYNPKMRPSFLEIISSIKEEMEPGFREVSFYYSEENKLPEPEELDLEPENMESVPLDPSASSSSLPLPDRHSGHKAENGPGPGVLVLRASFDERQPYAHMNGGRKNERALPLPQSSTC
Chain of receptor complexes containing IGF-1R and ErbB3 (P21860 20-1342): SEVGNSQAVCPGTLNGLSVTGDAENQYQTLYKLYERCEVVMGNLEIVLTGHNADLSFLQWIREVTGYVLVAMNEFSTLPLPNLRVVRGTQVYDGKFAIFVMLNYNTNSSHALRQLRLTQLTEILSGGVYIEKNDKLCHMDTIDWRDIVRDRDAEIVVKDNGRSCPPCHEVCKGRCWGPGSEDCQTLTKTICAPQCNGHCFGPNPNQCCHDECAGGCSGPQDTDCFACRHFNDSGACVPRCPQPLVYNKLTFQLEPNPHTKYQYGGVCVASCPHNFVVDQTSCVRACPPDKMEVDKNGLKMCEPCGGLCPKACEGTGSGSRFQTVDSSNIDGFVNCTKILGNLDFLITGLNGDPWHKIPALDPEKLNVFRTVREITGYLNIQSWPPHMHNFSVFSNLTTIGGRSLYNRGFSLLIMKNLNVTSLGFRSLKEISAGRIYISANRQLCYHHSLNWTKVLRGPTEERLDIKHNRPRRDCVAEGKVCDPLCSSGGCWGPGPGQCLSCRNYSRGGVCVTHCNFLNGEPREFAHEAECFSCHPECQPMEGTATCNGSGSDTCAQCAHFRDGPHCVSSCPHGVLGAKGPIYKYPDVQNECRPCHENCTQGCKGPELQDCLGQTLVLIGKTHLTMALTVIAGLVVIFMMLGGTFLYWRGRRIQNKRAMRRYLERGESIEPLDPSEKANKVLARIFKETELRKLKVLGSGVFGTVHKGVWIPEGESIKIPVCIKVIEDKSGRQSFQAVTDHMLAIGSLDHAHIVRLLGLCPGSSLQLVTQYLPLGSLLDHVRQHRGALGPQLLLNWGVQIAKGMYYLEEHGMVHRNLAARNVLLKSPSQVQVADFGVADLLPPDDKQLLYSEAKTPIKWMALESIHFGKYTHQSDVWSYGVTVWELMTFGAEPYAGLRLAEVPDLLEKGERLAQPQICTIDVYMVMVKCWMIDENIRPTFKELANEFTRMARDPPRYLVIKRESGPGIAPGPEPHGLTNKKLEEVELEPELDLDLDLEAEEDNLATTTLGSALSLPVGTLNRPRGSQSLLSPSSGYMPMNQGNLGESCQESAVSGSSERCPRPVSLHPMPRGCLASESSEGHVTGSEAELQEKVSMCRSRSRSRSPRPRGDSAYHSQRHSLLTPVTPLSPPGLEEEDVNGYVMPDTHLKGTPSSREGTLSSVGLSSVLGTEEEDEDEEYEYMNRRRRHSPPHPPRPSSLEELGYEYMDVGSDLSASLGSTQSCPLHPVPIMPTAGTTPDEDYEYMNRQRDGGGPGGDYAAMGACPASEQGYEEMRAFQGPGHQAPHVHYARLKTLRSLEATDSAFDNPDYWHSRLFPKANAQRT

[3] = tested on: IGF-1R and ErbB3 signaling; assay: growth factor-induced (IGF-1, heregulin) signaling in pancreatic cancer models; type: cell-based; details: preclinical research
[4] = tested on: IGF-1R and ErbB3 signaling; details: background description; cited from earlier work
[5] = tested on: preclinical models of pancreatic cancer; assay: preclinical models of pancreatic cancer, combination with nab-paclitaxel and gemcitabine; type: in vivo; details: KRAS mutant pancreatic cancer models
[6] = tested on: preclinical models of pancreatic cancer; details: combined with nab-paclitaxel and gemcitabine; cited from earlier work
pancreatic cancer models = assay: IGF-1- and HRG-mediated insensitivity to gemcitabine or paclitaxel; type: cell-based; details: preclinical research
[7] = Phase 1 study; cited from earlier work

Nc1ccn([C@@H]2O[C@H](CO)[C@@H](O)C2(F)F)c(=O)n1 [gemcitabine, 2′-deoxy-2′,2′-difluorocytidine monohydrochloride (-isomer)]
HRG mRNA expression, normalized to housekeeping gene expression ([1]; 24 h treatment with 1 mM of gemcitabine): increases HRG mRNA expression

CC(=O)O[C@H]1C(=O)[C@@]2(C)[C@H]([C@H](OC(=O)c3ccccc3)[C@]3(O)C[C@H](OC(=O)[C@H](O)[C@@H](NC(=O)c4ccccc4)c4ccccc4)C(C)=C1C3(C)C)[C@]1(OC(C)=O)CO[C@@H]1C[C@@H]2O [paclitaxel]
HRG mRNA expression, normalized to housekeeping gene expression ([1]; 24 h treatment with 0.1 mM of paclitaxel): increases HRG mRNA expression

Istiratumab: recombinant fully human bispecific tetravalent antibody directed at IGF-1R and ErbB3; light chain SEQ ID NO: 1, heavy chain SEQ ID NO: 2
degradation of receptor complexes containing IGF-1R and ErbB3 [2]: induces degradation of receptor complexes containing IGF-1R and ErbB3
growth factor-induced survival signaling [3]: inhibits growth factor-induced survival signaling
IGF-1 and heregulin-induced signaling [4]: co-blocks IGF-1 and heregulin-induced signaling
potentiation of anti-tumor activity of nab-paclitaxel/gemcitabine [5]: potentiates the anti-tumor activity of nab-paclitaxel/gemcitabine
tumor regression [6]: significant tumor regression, including durable complete responses
reversal of IGF-1- and HRG-mediated insensitivity to gemcitabine or paclitaxel (pancreatic cancer models): reverses IGF-1- and HRG-mediated insensitivity to gemcitabine or paclitaxel
safety and tolerability [7]: safe and tolerable
